Assay results as given in patent US20130065959A1, “SANITIZING MEAT WITH PERACID AND 2-HYDROXY ORGANIC ACID COMPOSITIONS” (Fresh Express Incorporated, priority 2009, published 2013).

Experiments:
[1] = Depletion of sanitizer wash water by diced Romaine, commercial scale test (Example 5); type: physicochemical; conditions: 38 to 40 F; for PA (ppm) / Peroxide (ppm): 600 gallons, LA 0 ppm
Description: (§1) Example 5. These experiments evaluated the consumption or depletion of peroxyacetic acid when used to wash produce.
(§2) Treatments: chlorinated water, peroxyacetic acid wash water, and FE sanitizer wash water
(§3) Temperature: 38 to 40° F.
(§4) Produce: 1.5″×2″ diced Romaine lettuce
A. Determination of the amount of Romaine Lettuce that could deplete 600 gallons of peroxyacetic acid wash water. • 1. Perform full sanitization on the Pilot Line System. • 2. Fill the 2nd flume tank, 2nd reservoir, and 2nd filtering tank with tap water. • 3. Recycle the water through the system until the water in the system is being cooled down to 40° F. • 4. Calibrate the Prominent System and use the Prominent System to monitor the concentration of PAA in the wash water. • 5. Add the PAA to the 2nd filtering tank until the target processing limit is reached. • 6. Dice the Romaine Lettuce via the translicer. • 7. Collect the 2″×2″ diced Romaine in totes. • 8. Record the weight of each tote prior to transferring it to the 2nd flume. • 9. Collect three untreated bags of Romaine Lettuce from each bin (1 top, 1 middle, and 1 bottom). • 10. Collect three treated bags of Romaine Lettuce at the end of F2 (1 beginning, 1 middle, and 1 end of the bin). • 11. Place white totes at the bottom of the locations with water spill. Return the spilt water back into the flume tank as needed. • 12. Place white totes at the bottom outlets of the centrifuge to collect liquid that would be spin off from the leaves. Return the collected water back into the flume tank as needed. • 13. Repeat Steps ‘e’ to ‘k’ for the rest of the bins till the FE concentrations fall below the lowest processing limits. • 14. Enumerate the microbial population (APC and Yeast and mold) on the collected samples. B. Determination of the amount of Romaine Lettuce that could deplete 600 gallons of FE wash water • 1. Perform full sanitization on the Pilot Line System. • 2. Fill the 1st flume tank, 2nd flume tank, 1st reservoir, 2nd reservoir, 1^stfiltering tank, and 2nd filtering tank with tap water. • 3. Recycle the water through the system until the water in the system is being cooled down to 40° F. • 4. Switch on the by-passes for the 1st and 2nd flume tank systems so that water would not be going through the filtering systems but only recycling from the flume tank to its associate reservoir continuously. • 5. Add the chemical ingredients to both tank until the target processing limit is reached. • 6. Verify the concentration of FE by the probe of the Prominent Monitoring System at the 1st flume tank (F1), 1st Reservoir (R1), 2nd Flume tank (F2), and the 2nd Reservoir (R2). • 7. Collect water samples from F1 and F2. • 8. Assemble the Romaine Lettuce Bins next to the dumpster. • 9. Transfer whole Romaine Lettuce leaves from the bin to the conveyor. • 10. Ensure that the lid above the F1 is closed. Turn the “ON/OFF” switch of the translicer to “ON”. • 11. Turn the conveyor for transferring leaves into the translicer to “ON”. • 12. Ensure that the chopped Romaine are delivered evenly into the flume tank without aggregation and clumping. • 13. Collect three untreated bags of Romaine Lettuce from each bin (1 top, 1 middle, and 1 bottom). • 14. Collect three treated bags of Romaine Lettuce at the end of F2 (1 beginning, 1 middle, and 1 end of the bin). • 15. Verify the pH, temperature, and the concentration of FE at the 1st flume tank (F1), 1st Reservoir (R1), 2nd Flume tank (F2), and the 2nd Reservoir (R2) before and after processing a bin. • 16. Place white totes at the bottom of the locations with water spill. Return the spilt water back into the flume tank as needed. • 17. Place white totes at the bottom outlets of the centrifuge to collect liquid that would be spin off from the leaves. Return the collected water back into the flume tank as needed. • 18. Repeat Steps ‘e’ to ‘o’ for the rest of the bins till the FE concentrations fall below the lowest processing limits. • 19. […]

[2] = system: indigenous microorganisms; test: Reduction of indigenous microorganisms on Romaine, Aerobic Plate Counts, commercial scale test (Example 5); type: cell-based; conditions: 73-84 ppm peroxyacetic acid, no lactic acid
Description: as §1, §2, §3, §4
A. Determination of the amount of Romaine Lettuce that could deplete 600 gallons of peroxyacetic acid wash water. • 1. Perform full sanitization on the Pilot Line System. • 2. Fill the 2nd flume tank, 2nd reservoir, and 2nd filtering tank with tap water. • 3. Recycle the water through the system until the water in the system is being cooled down to 40° F. • 4. Calibrate the Prominent System and use the Prominent System to monitor the concentration of PAA in the wash water. • 5. Add the PAA to the 2nd filtering tank until the target processing limit is reached. • 6. Dice the Romaine Lettuce via the translicer. • 7. Collect the 2″×2″ diced Romaine in totes. • 8. Record the weight of each tote prior to transferring it to the 2nd flume. • 9. Collect three untreated bags of Romaine Lettuce from each bin (1 top, 1 middle, and 1 bottom). • 10. Collect three treated bags of Romaine Lettuce at the end of F2 (1 beginning, 1 middle, and 1 end of the bin). • 11. Place white totes at the bottom of the locations with water spill. Return the spilt water back into the flume tank as needed. • 12. […]

[3] = 600 gallons wash water, whole run
[4] = cumulative diced Romaine added 0.0 lb
[5] = cumulative diced Romaine added 55.2 lb
[6] = cumulative diced Romaine added 114.9 lb
[7] = cumulative diced Romaine added 157.2 lb
[8] = cumulative diced Romaine added 207.7 lb
[9] = cumulative diced Romaine added 272.9 lb
[10] = cumulative diced Romaine added 325.8 lb
[11] = cumulative diced Romaine added 371.3 lb
[12] = cumulative diced Romaine added 424.7 lb
[13] = cumulative diced Romaine added 502.6 lb
[14] = cumulative diced Romaine added 565.0 lb
[15] = cumulative diced Romaine added 629.0 lb
[16] = cumulative diced Romaine added 697.1 lb
[17] = cumulative diced Romaine added 762.7 lb
[18] = cumulative diced Romaine added 826.6 lb
[19] = cumulative diced Romaine added 896.2 lb
[20] = cumulative diced Romaine added 949.9 lb

Compound: CC(=O)OO [Peroxyacetic acid, peroxyacetic acid]
- Amount of PA consumed [1, 3]: 11.7 ppm
- Pounds of PA consumed [1, 3]: 0.01208 lb
- Depletion of PA ([1]; 600 gallons wash water, no lactic acid): 0.000013 lb of PA per lb of Romaine
- PA (ppm) [1, 4]: 84.8 ppm
- Peroxide (ppm) [1, 4]: 7.5 ppm
- PA (ppm) [1, 5]: 83.3 ppm
- Peroxide (ppm) [1, 5]: 7.4 ppm
- PA (ppm) [1, 6]: 82.7 ppm
- Peroxide (ppm) [1, 6]: 7.4 ppm
- PA (ppm) [1, 7]: 82.4 ppm
- Peroxide (ppm) [1, 7]: 7.4 ppm
- PA (ppm) [1, 8]: 82.0 ppm
- Peroxide (ppm) [1, 8]: 7.4 ppm
- PA (ppm) [1, 9]: 81.4 ppm
- Peroxide (ppm) [1, 9]: 7.3 ppm
- PA (ppm) [1, 10]: 81.0 ppm
- Peroxide (ppm) [1, 10]: 7.3 ppm
- PA (ppm) [1, 11]: 80.5 ppm
- Peroxide (ppm) [1, 11]: 7.1 ppm
- PA (ppm) [1, 12]: 79.6 ppm
- Peroxide (ppm) [1, 12]: 6.9 ppm
- PA (ppm) [1, 13]: 78.7 ppm
- Peroxide (ppm) [1, 13]: 6.9 ppm
- PA (ppm) [1, 14]: 78.4 ppm
- Peroxide (ppm) [1, 14]: 6.9 ppm
- PA (ppm) [1, 15]: 77.7 ppm
- Peroxide (ppm) [1, 15]: 6.4 ppm
- PA (ppm) [1, 16]: 76.1 ppm
- Peroxide (ppm) [1, 16]: 6.4 ppm
- PA (ppm) [1, 17]: 75.4 ppm
- Peroxide (ppm) [1, 17]: 6.1 ppm
- PA (ppm) [1, 18]: 74.7 ppm
- Peroxide (ppm) [1, 18]: 6.0 ppm
- PA (ppm) [1, 19]: 73.7 ppm
- Peroxide (ppm) [1, 19]: 6.0 ppm
- PA (ppm) [1, 20]: 73.1 ppm
- Peroxide (ppm) [1, 20]: 6.0 ppm
- Log Reduction, Aerobic Plate Counts [2]: 0.7 Log cfu/g
- Aerobic Plate Counts after wash ([2]; untreated 3.4): 2.7 Log cfu/g
